Results taken from patent US20190350898A1, “METHODS AND COMPOSITIONS FOR TREATMENT OF ALZHEIMER'S DISEASE” (Neurotrope Bioscience, Inc., priority 2018, published 2019).
Several values for one entry are separate records, joined by “and”; a condition that tells them apart may be missing. Identical values can stand only once.

Key:
[1] = tested on: patients with advanced Alzheimer's disease; assay: Severe Impairment Battery (SIB) change from baseline, double-blind randomized placebo-controlled trial; type: in vivo, human; conditions: for SIB Total change from baseline, LS Mean / SIB Total, Difference vs. Placebo / SIB Total change from baseline, LS Mean (SE): Bryostatin 20 μg; for SIB Delta at Ave of Week 13 and 15, Mean / SIB Delta at Week 5, Mean / SIB Delta at Week 9, Mean / SIB Delta at Week 13, Mean: Low dose (20), unadjusted; for Combined treatment effect, mean improvement in SIB over placebo: bryostatin 20 μg, post-hoc MMRM; for SIB Total LS Mean difference between 20 μg group and placebo: week 13
Protocol: In a double-blind, randomized, placebo-controlled trial, bryostatin was administered by intravenous infusion (˜45 minutes) to patients with advanced Alzheimer's disease for 12 weeks at doses of 20 or 40 μg. Randomization was stratified at baseline by severe (MMSE-2, 4-9) and moderate (MMSE-2, 10-15) dementia, wherein MMSE-2 refers to Mini-Mental State Examination, version 2. The MMSE or Folstein test is a 30-point questionnaire that is used extensively in clinical and research settings to measure cognitive impairment. Low scores indicate greater impairment. Version 2 of the MMSE was published in 2010, expanding the original questionnaire's usefulness in populations with milder forms of cognitive impairment. […] Importantly, this cognitive improvement persisted and increased 30 days after all bryostatin dosing had been completed.
(§1) Adults aged 55-85 with cognitive deficits present for at least 2 years, MMSE-2 of 4-15, inclusive, and a diagnosis of Alzheimer's dementia were randomly assigned to receive blinded intravenous infusions of bryostatin 24 μg or matching placebo at weeks 0 and 1. The 24 μg and 48 μg doses during the first two weeks of the 20 and 40 μg protocols respectively were considered to be “loading” doses thought to be beneficial from prior experience with Compassionate Use trial patients. Nelson et al., Alzheimers Dis. 2017 58: 521-535. In one arm, the two 24 μg doses were followed by 20 μg doses at weeks 5, 7, 9 and 11 with the Severe Impairment Battery (SIB) measured at baseline and weeks 5, 9, 13, and 15. In a second arm, the two 48 μg doses at weeks 0 and 1 were followed by 40 μg doses at weeks 5, 7, 9, and 11 with the SIB measured at baseline and weeks 5, 9, 13, and 15. The subjects were stratified by MMSE-2 in two strata: Stratum 1 (4-9) and Stratum 2 (10-15). The first primary endpoint was safety and tolerability, assessed by treatment emergent adverse events (TEAEs) with a sample size of 150 subjects randomized 1:1:1. Although efficacy was the secondary measure, the primary efficacy endpoint was SIB improvement at week 13 evaluated using a mixed model for repeated measures. A secondary efficacy endpoint was ADCS-ADL Sev. The primary safety population included all subjects who received at least 1 dose of study drug, and efficacy was evaluated in a modified intent to treat (mITT) population that received at least 1 dose of study drug and had at least one treatment evaluation. Efficacy was evaluated both as a primary end-point in the modified intent-to-treat (mITT) population and also as a primary end point in a Completers population that included all patients that completed the entire protocols as described above.
The SIB efficacy measurement at 30 days (week 15) post dosing—after all dosing had been completed (last dose administered at week 11)—was a pre-specified exploratory endpoint. Week 15 results were only included for subjects who were not re-randomized. The mixed model assumes missing at random, but order of enrollment in the trial was not random. Since order of enrollment was not random, the assumption of missing at random is not met. For this reason, only including week 15 for those who were not re-randomized is an appropriate way to estimate week 15 results, but not an appropriate way to estimate results at the earlier visits. For this reason, estimates up through week 13 are from a mixed model that only included data through week 13 and the week 15 estimates are from a separate model. Results were generated using a mixed model with repeated measures predicting change from baseline in SIB Total Score as the response variable and using baseline score, baseline MMSE strata, treatment, visit (categorical), and visit (treatment) as predictors. […]

[2] = tested on: patients with advanced Alzheimer's disease; assay: ADCS-ADL-SIV (ADCS-ADL Sev) secondary efficacy endpoint, same trial; type: in vivo, human; conditions: for ADCS-ADL LS Mean difference between 20 μg group and placebo: week 13
Protocol: as §1
There was no evidence of treatment by efficacy of acetyl-cholinesterase-inhibitor (AChEI) use interaction. For SIB Total, the two sided p-value for the interaction between treatment and AChEI use was 0.8244 and the two sided p-value for the interaction between treatment, AChEI use and time was 0.9223. Similar results were seen when investigating the effect of AChEI use on treatment effect for ADCS-ADL with p-values of 0.5137 and 0.6256 (two sided), respectively. At week 13, the LS Mean difference between 20 μg group and placebo in SIB Total for AChEI non-users was 2.00 and users was 2.09, and in ADCS-ADL for AChEI non-users was −0.67 and users was 1.99.

[3] = Week 13, FAS (mITT), Without Memantine
[4] = Week 15 (30 days post dosing), Completer, MMRM
[5] = Week 15 (30 days post dosing), FAS, MMRM
[6] = Week 15, Completer, With Memantine
[7] = Week 15, Completer, Without Memantine
[8] = Week 15, FAS (mITT), Without Memantine
[9] = Memantine Exposed Patients, FAS
[10] = Memantine Treatment-Naïve Patients, FAS

**Q.** For `CCC/C=C/C=C/C(=O)O[C@H]1/C(=C/C(=O)OC)C[C@H]2C[C@H]([C@@H](C)O)OC(=O)C[C@H](O)C[C@@H]3C[C@H](OC(C)=O)C(C)(C)[C@](O)(C[C@@H]4C/C(=C/C(=O)OC)C[C@H](/C=C/C(C)(C)[C@]1(O)O2)O4)O3` [Bryostatin, bryostatin-1], which “SIB Total change from baseline, LS Mean” value [1, 3] is on record?
**A.** Its value is 3.83 points.

**Q.** And the “SIB Total, Difference vs. Placebo” value [1, 3]?
**A.** Its value is 5.11.

**Q.** What about the “SIB Total change from baseline, LS Mean (SE)” value (“SIB Total change … (SE)” below) ([1]; Week 13, FAS, MMRM) of the same compound?
**A.** Its value is 1.16 (1.150).

**Q.** What about the “SIB Total, Difference vs. Placebo” value ([1]; Week 13, FAS, MMRM) of the same compound?
**A.** The value was 1.94.

**Q.** And the “SIB Total change … (SE)” value [1, 4]?
**A.** Its value is 1.96 (1.255).

**Q.** And the “SIB Total, Difference vs. Placebo” value [1, 4]?
**A.** The value was 4.09.

**Q.** What about the “SIB Total, Difference vs. Placebo” value ([1]; Week 15 (30 days post dosing), Completer, MMRM, listed as bryostatin) of the same compound?
**A.** The value was 4.0 and 4.09.

**Q.** And the “SIB Total change … (SE)” value [1, 5]?
**A.** The value was 1.77 (1.342) points.

**Q.** What about the “SIB Total, Difference vs. Placebo” value [1, 5] of the same compound?
**A.** The value was 3.59.

**Q.** And the “SIB Total change … (SE)” value ([1]; Week 15 (30 days post dosing), FAS, MMRM, listed as bryostatin)?
**A.** The value was 1.77 points.

**Q.** And the “SIB Total change from baseline, LS Mean” value [1, 6]?
**A.** The value was −0.71.

**Q.** And the “SIB Total, Difference vs. Placebo” value [1, 6]?
**A.** The value was 1.45.

**Q.** What about the “SIB Total change from baseline, LS Mean” value [1, 7] of the same compound?
**A.** The value was 6.24.

**Q.** What about the “SIB Total, Difference vs. Placebo” value [1, 7] of the same compound?
**A.** The value was 6.36.

**Q.** What about the “SIB Total change from baseline, LS Mean” value [1, 8] of the same compound?
**A.** The value was 5.88 points.

**Q.** And the “SIB Total, Difference vs. Placebo” value [1, 8]?
**A.** Its value is 5.93.

**Q.** What about the “SIB Total change from baseline, LS Mean” value ([1]; Week 15, FAS, With Memantine) of the same compound?
**A.** Its value is −0.83.

**Q.** And the “SIB Total, Difference vs. Placebo” value ([1]; Week 15, FAS, With Memantine)?
**A.** The value was 0.79.

**Q.** And the “13-week LS Mean change in SIB (so in the source)” value ([1]; Completers, 20 μg group 'without memantine' as printed)?
**A.** The value was 0.56.

**Q.** What about the “SIB Delta at Ave of Week 13 and 15, Mean” value [1, 9] of the same compound?
**A.** The value was −0.727.

**Q.** And the “SIB Delta at Week 5, Mean” value [1, 9]?
**A.** Its value is 0.077.

**Q.** And the “SIB Delta at Week 9, Mean” value [1, 9]?
**A.** Its value is −0.087.

**Q.** What about the “SIB Delta at Week 13, Mean” value [1, 9] of the same compound?
**A.** The value was −0.545.

**Q.** And the “SIB Delta at Ave of Week 13 and 15, Mean” value [1, 10]?
**A.** The value was 5.406.

**Q.** What about the “SIB Delta at Week 5, Mean” value [1, 10] of the same compound?
**A.** The value was 3.444.

**Q.** What about the “SIB Delta at Week 9, Mean” value [1, 10] of the same compound?
**A.** The value was 3.467.

**Q.** What about the “SIB Delta at Week 13, Mean” value [1, 10] of the same compound?
**A.** The value was 4.500.

**Q.** And the “Treatment, adjusted slope (ANCOVA, SIB at 13/15 weeks from baseline, 20 μg Bryostatin vs placebo)” value ([1]; Memantine Exposed, adjusted for Base SIB, MMSE-2)?
**A.** Its value is −0.620 (p = 0.815).

**Q.** And the “Treatment, adjusted slope (ANCOVA, SIB at 13/15 weeks from baseline, 20 μg Bryostatin vs placebo)” value ([1]; Memantine Exposed, adjusted for Baseline SIB)?
**A.** Its value is −0.531 (p = 0.843).

**Q.** What about the “Treatment, adjusted slope (ANCOVA, SIB at 13/15 weeks from baseline, 20 μg Bryostatin vs placebo)” value ([1]; Memantine Naïve, adjusted for Base SIB, MMSE-2) of the same compound?
**A.** The value was 5.923 (p = 0.002).

**Q.** And the “Treatment, adjusted slope (ANCOVA, SIB at 13/15 weeks from baseline, 20 μg Bryostatin vs placebo)” value ([1]; Memantine Naïve, adjusted for Baseline SIB)?
**A.** Its value is 5.426 (p = 0.010).

**Q.** And the “Combined treatment effect, mean improvement in SIB over placebo” value (shortened to “Combined treatment effect … over placebo”) ([1]; Weeks 5, 9, 13, and 15, 30-Day Follow-up population)?
**A.** The value was 4.721.

**Q.** And the “Combined treatment effect … over placebo” value ([1]; Weeks 5, 9, and 13, Completer population)?
**A.** The value was 3.089.

**Q.** And the “Combined treatment effect … over placebo” value ([1]; Weeks 5, 9, and 13, FAS population)?
**A.** Its value is 2.146.

**Q.** What about the “SIB Total LS Mean difference between 20 μg group and placebo” value ([1]; AChEI non-users) of the same compound?
**A.** The value was 2.00.

**Q.** What about the “SIB Total LS Mean difference between 20 μg group and placebo” value ([1]; AChEI users) of the same compound?
**A.** Its value is 2.09.

**Q.** And the “ADCS-ADL efficacy” value ([2]; 20 μg dose)?
**A.** The value was “significant”.

**Q.** And the “ADCS-ADL difference from placebo” value ([2]; 20 μg dose, completers group)?
**A.** The value was 1.6.

**Q.** What about the “ADCS-ADL difference from placebo” value ([2]; 20 μg dose, mITT group) of the same compound?
**A.** Its value is 1.4.

**Q.** What about the “ADCS-ADL, subgroups with and without memantine” value ([2]; memantine (Namenda) as background SOC therapy or not) of the same compound?
**A.** Its value is “not significantly different above placebo”.

**Q.** And the “ADCS-ADL LS Mean difference between 20 μg group and placebo” value ([2]; AChEI non-users)?
**A.** The value was −0.67.

**Q.** And the “ADCS-ADL LS Mean difference between 20 μg group and placebo” value ([2]; AChEI users)?
**A.** Its value is 1.99.
